Tested on: 299254-011-R-J1-PDC complex spheroids viability
Assay: Anticancer human tumor 299254-011-R-J1-PDC patient-derived melanoma cell line growth inhibition [GQUAD]
Settings: for IC50: curve of first compound; for viability, T/C: stronger effect = lower value; active means viability on the fitted dose curve at most 10% of control; inactive means the rest
Summary of the method: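 Multi-cell-type spheroids of tumor cells with HUVEC and mesenchymal stem cells, treated with drug combinations. Concentrations descend in half-log steps from near clinical Cmax, or from 10 microM where Cmax is unknown; viability read-out.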

[1] = second compound 0.0316 µM, first compound 0.0316 µM
[2] = second compound 0.0316 µM, first compound 0.316 µM
[3] = second compound 0.1 µM, first compound 0.0316 µM
[4] = second compound 0.1 µM, first compound 0.316 µM
[5] = second compound 0.316 µM, first compound 0.0316 µM
[6] = second compound 0.316 µM, first compound 0.316 µM
[7] = second compound 1 µM, first compound 0.0316 µM
[8] = second compound 1 µM, first compound 0.316 µM
[9] = second compound 3.16 µM, first compound 0.0316 µM
[10] = second compound 3.16 µM, first compound 0.316 µM
[11] = second compound 10 µM, first compound 0.0316 µM
[12] = second compound 10 µM, first compound 0.316 µM
[13] = second compound 0.0316 µM, first compound 0.000999 µM
[14] = second compound 0.0316 µM, first compound 0.00316 µM
[15] = second compound 0.0316 µM, first compound 0.00999 µM
[16] = second compound 0.0316 µM, first compound 0.0999 µM
[17] = second compound 0.1 µM, first compound 0.000999 µM
[18] = second compound 0.1 µM, first compound 0.00316 µM
[19] = second compound 0.1 µM, first compound 0.00999 µM
[20] = second compound 0.1 µM, first compound 0.0999 µM
[21] = second compound 0.316 µM, first compound 0.000999 µM
[22] = second compound 0.316 µM, first compound 0.00316 µM
[23] = second compound 0.316 µM, first compound 0.00999 µM
[24] = second compound 0.316 µM, first compound 0.0999 µM
[25] = second compound 1 µM, first compound 0.000999 µM
[26] = second compound 1 µM, first compound 0.00316 µM
[27] = second compound 1 µM, first compound 0.00999 µM
[28] = second compound 1 µM, first compound 0.0999 µM
[29] = second compound 3.16 µM, first compound 0.000999 µM
[30] = second compound 3.16 µM, first compound 0.00316 µM
[31] = second compound 3.16 µM, first compound 0.00999 µM
[32] = second compound 3.16 µM, first compound 0.0999 µM
[33] = second compound 10 µM, first compound 0.000999 µM
[34] = second compound 10 µM, first compound 0.00316 µM
[35] = second compound 10 µM, first compound 0.00999 µM
[36] = second compound 10 µM, first compound 0.0999 µM
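Further: spheroids exposed to the agents for seven days before readout.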
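Wherever viability, T/C is given: percent viability relative to DMSO vehicle control wells = 100%.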

CCCS(=O)(=O)Nc1ccc(F)c(C(=O)c2c[nH]c3ncc(-c4ccc(Cl)cc4)cc23)c1F + CN(C)c1ccc(Nc2c3ccc(NC(=O)CCN4CCCC4)cc3nc3cc(NC(=O)CCN4CCCC4)ccc23)cc1
7920 nM: IC50 (second compound 10 µM)
inactive: viability, T/C [1] 116% | viability, T/C (second compound 0.0316 µM, first compound 0.1 µM) 111% | viability, T/C [2] 116% | viability, T/C (second compound 0.0316 µM, first compound 1 µM) 103% | viability, T/C (second compound 0.0316 µM, first compound 3.16 µM) 108% | viability, T/C (second compound 0.0316 µM, first compound 10 µM) 41% | viability, T/C [3] 105% | viability, T/C (second compound 0.1 µM, first compound 0.1 µM) 104% | viability, T/C [4] 101% | viability, T/C (second compound 0.1 µM, first compound 1 µM) 88.4% | viability, T/C (second compound 0.1 µM, first compound 3.16 µM) 108% | viability, T/C (second compound 0.1 µM, first compound 10 µM) 38.5% | viability, T/C [5] 106% | viability, T/C (second compound 0.316 µM, first compound 0.1 µM) 111% | viability, T/C [6] 89.2% | viability, T/C (second compound 0.316 µM, first compound 1 µM) 103% | viability, T/C (second compound 0.316 µM, first compound 3.16 µM) 112% | viability, T/C (second compound 0.316 µM, first compound 10 µM) 43.9% | viability, T/C [7] 105% | viability, T/C (second compound 1 µM, first compound 0.1 µM) 111% | viability, T/C [8] 97.4% | viability, T/C (second compound 1 µM, first compound 1 µM) 88.8% | viability, T/C (second compound 1 µM, first compound 3.16 µM) 94.4% | viability, T/C (second compound 1 µM, first compound 10 µM) 39.5% | viability, T/C [9] 98.3% | viability, T/C (second compound 3.16 µM, first compound 0.1 µM) 95.1% | viability, T/C [10] 112% | viability, T/C (second compound 3.16 µM, first compound 1 µM) 97% | viability, T/C (second compound 3.16 µM, first compound 3.16 µM) 90.1% | viability, T/C (second compound 3.16 µM, first compound 10 µM) 45.8% | viability, T/C [11] 110% | viability, T/C (second compound 10 µM, first compound 0.1 µM) 146% | viability, T/C [12] 116% | viability, T/C (second compound 10 µM, first compound 1 µM) 119% | viability, T/C (second compound 10 µM, first compound 3.16 µM) 111% | viability, T/C (second compound 10 µM, first compound 10 µM) 34.5%
7960 nM: IC50 (second compound 1 µM)
8990 nM: IC50 (second compound 3.16 µM)
8590 nM: IC50 (second compound 0.0316 µM)
8100 nM: IC50 (second compound 0.1 µM)
8910 nM: IC50 (second compound 0.316 µM)

Cc1[nH]c2ccccc2c1CCNCc1ccc(/C=C/C(=O)NO)cc1 + CN(C)c1ccc(Nc2c3ccc(NC(=O)CCN4CCCC4)cc3nc3cc(NC(=O)CCN4CCCC4)ccc23)cc1
171 nM: IC50 (second compound 0.316 µM)
134 nM: IC50 (second compound 10 µM)
188 nM: IC50 (second compound 1 µM)
138 nM: IC50 (second compound 0.1 µM)
inactive: viability, T/C [13] 96.8% | viability, T/C [14] 81.8% | viability, T/C [15] 89.2% | viability, T/C [1] 82.9% | viability, T/C [16] 74.8% | viability, T/C [2] 16.3% | viability, T/C [17] 86% | viability, T/C [18] 102% | viability, T/C [19] 86.8% | viability, T/C [3] 90.3% | viability, T/C [20] 63.7% | viability, T/C [4] 15% | viability, T/C [21] 95.3% | viability, T/C [22] 88.5% | viability, T/C [23] 87% | viability, T/C [5] 97.3% | viability, T/C [24] 77% | viability, T/C [6] 19.3% | viability, T/C [25] 101% | viability, T/C [26] 110% | viability, T/C [27] 73.4% | viability, T/C [7] 92.4% | viability, T/C [28] 87.8% | viability, T/C [8] 18.7% | viability, T/C [29] 111% | viability, T/C [30] 110% | viability, T/C [31] 86.6% | viability, T/C [9] 107% | viability, T/C [32] 68.9% | viability, T/C [10] 16.2% | viability, T/C [33] 103% | viability, T/C [34] 121% | viability, T/C [35] 98.8% | viability, T/C [11] 95.7% | viability, T/C [36] 61.7% | viability, T/C [12] 14.7%
161 nM: IC50 (second compound 0.0316 µM)
151 nM: IC50 (second compound 3.16 µM)

CC[C@@]1(O)C(=O)OCc2c1cc1n(c2=O)Cc2cc3c(CN(C)C)c(O)ccc3nc2-1 + CN(C)c1ccc(Nc2c3ccc(NC(=O)CCN4CCCC4)cc3nc3cc(NC(=O)CCN4CCCC4)ccc23)cc1
> 316 nM: IC50 (second compound 0.0316 µM) | IC50 (second compound 0.1 µM) | IC50 (second compound 0.316 µM) | IC50 (second compound 1 µM) | IC50 (second compound 3.16 µM) | IC50 (second compound 10 µM)
inactive: viability, T/C [13] 99.2% | viability, T/C [14] 105% | viability, T/C [15] 126% | viability, T/C [1] 107% | viability, T/C [16] 112% | viability, T/C [2] 90.4% | viability, T/C [17] 120% | viability, T/C [18] 93.2% | viability, T/C [19] 98.7% | viability, T/C [3] 101% | viability, T/C [20] 84.5% | viability, T/C [4] 90.1% | viability, T/C [21] 108% | viability, T/C [22] 120% | viability, T/C [23] 108% | viability, T/C [5] 90.1% | viability, T/C [24] 85.8% | viability, T/C [6] 101% | viability, T/C [25] 106% | viability, T/C [26] 105% | viability, T/C [27] 115% | viability, T/C [7] 114% | viability, T/C [28] 97.6% | viability, T/C [8] 81.8% | viability, T/C [29] 103% | viability, T/C [30] 97% | viability, T/C [31] 122% | viability, T/C [9] 125% | viability, T/C [32] 124% | viability, T/C [10] 95.9% | viability, T/C [33] 112% | viability, T/C [34] 89.3% | viability, T/C [35] 110% | viability, T/C [11] 97.1% | viability, T/C [36] 91.6% | viability, T/C [12] 90.1%
